Test results reported in ChEMBL document CHEMBL5291721, “A preclinical secondary pharmacology resource illuminates target-adverse drug reaction associations of marketed drugs” (Nat Commun, 2023).

How the values were obtained:
Histamine H2 receptor = Histamine H2 receptor (Homo sapiens, UniProt P25021); format: functional, cell-based
[1] = molecular target: Beta-2 adrenergic receptor (Homo sapiens, UniProt P07550)
[2] = molecular target: T1, Amine oxidase [flavin-containing] A (Homo sapiens, UniProt P21397); format: functional
T1 sequence (P21397 whole entry): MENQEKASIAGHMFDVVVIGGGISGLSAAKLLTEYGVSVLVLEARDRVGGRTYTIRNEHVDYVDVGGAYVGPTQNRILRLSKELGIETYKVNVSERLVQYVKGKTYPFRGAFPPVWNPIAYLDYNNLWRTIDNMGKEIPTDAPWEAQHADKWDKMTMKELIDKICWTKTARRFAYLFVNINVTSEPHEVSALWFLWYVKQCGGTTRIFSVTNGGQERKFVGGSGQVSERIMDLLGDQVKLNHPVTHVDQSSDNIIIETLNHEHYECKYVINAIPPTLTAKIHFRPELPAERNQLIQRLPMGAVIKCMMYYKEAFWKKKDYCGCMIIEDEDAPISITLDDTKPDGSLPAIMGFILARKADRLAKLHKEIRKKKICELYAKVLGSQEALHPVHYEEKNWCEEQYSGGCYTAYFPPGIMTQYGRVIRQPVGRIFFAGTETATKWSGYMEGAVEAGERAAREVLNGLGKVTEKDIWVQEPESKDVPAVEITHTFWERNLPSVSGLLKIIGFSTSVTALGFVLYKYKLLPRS

[3] = molecular target: cGMP-inhibited 3',5'-cyclic phosphodiesterase 3A (Homo sapiens, UniProt Q14432); format: functional
Sequence of cGMP-inhibited 3',5'-cyclic phosphodiesterase 3A (Q14432 whole entry): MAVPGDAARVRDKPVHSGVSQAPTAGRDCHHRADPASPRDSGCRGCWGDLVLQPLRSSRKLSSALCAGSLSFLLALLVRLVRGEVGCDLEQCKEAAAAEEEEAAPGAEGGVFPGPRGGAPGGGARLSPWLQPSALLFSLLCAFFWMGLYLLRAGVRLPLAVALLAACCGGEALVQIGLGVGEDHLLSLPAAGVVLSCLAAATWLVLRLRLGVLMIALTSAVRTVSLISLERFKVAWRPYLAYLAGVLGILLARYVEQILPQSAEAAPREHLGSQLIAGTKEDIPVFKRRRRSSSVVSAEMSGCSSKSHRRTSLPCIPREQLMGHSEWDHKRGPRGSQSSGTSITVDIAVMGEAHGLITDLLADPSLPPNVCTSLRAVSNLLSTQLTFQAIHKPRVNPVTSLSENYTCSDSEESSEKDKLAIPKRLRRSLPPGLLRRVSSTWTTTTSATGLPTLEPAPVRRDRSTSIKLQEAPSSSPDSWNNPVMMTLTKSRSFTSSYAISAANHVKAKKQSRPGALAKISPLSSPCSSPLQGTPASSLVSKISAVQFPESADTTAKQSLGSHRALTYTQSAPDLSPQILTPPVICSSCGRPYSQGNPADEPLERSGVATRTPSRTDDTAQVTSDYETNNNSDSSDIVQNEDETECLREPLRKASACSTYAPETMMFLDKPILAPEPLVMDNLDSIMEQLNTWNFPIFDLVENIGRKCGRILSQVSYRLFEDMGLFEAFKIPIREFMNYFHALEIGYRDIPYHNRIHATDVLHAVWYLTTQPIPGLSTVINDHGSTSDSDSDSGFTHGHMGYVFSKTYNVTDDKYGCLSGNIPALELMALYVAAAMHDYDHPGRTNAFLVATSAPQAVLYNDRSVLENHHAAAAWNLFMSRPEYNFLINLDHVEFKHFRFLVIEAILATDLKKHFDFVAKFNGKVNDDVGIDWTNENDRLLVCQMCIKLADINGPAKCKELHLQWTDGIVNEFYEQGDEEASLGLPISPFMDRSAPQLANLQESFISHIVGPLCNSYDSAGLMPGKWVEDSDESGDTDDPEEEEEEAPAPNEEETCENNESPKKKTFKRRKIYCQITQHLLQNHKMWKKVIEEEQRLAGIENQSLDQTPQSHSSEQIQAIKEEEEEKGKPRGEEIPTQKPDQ

[4] = molecular target: T2, Alpha-2A adrenergic receptor (Homo sapiens, UniProt P08913); format: functional, cell-based
T2 sequence (P08913 whole entry): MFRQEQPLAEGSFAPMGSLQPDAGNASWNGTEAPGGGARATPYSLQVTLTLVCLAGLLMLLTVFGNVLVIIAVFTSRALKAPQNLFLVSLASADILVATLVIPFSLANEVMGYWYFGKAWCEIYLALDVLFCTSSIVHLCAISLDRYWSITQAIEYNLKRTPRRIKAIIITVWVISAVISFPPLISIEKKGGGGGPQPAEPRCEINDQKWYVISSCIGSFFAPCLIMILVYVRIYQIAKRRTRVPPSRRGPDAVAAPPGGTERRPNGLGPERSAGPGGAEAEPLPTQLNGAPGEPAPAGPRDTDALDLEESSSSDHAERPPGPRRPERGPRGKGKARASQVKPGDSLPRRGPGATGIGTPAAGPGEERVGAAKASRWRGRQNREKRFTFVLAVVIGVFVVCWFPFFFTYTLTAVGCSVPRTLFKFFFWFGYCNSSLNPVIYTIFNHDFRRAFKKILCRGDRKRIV

[5] = molecular target: Sodium-dependent noradrenaline transporter (Homo sapiens, UniProt P23975)
Sequence of Sodium-dependent noradrenaline transporter (P23975 whole entry): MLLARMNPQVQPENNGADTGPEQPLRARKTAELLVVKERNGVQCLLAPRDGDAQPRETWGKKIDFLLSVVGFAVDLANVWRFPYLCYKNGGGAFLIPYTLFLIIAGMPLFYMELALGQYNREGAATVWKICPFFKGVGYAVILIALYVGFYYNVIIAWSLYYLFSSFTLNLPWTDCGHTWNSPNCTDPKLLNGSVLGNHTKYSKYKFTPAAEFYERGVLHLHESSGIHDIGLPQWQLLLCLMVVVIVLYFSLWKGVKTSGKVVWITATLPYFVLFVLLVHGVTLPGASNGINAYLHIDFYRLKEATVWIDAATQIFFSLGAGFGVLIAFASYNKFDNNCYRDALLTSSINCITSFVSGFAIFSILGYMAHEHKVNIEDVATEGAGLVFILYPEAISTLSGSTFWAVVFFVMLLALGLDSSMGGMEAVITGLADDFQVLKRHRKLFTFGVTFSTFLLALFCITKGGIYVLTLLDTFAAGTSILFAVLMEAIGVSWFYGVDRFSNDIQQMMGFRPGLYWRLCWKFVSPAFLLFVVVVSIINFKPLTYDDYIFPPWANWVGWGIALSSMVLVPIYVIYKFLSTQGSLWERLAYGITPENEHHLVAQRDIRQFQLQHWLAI

Motilin receptor = Motilin receptor (Homo sapiens, UniProt O43193)
Sequence of Motilin receptor (O43193 whole entry): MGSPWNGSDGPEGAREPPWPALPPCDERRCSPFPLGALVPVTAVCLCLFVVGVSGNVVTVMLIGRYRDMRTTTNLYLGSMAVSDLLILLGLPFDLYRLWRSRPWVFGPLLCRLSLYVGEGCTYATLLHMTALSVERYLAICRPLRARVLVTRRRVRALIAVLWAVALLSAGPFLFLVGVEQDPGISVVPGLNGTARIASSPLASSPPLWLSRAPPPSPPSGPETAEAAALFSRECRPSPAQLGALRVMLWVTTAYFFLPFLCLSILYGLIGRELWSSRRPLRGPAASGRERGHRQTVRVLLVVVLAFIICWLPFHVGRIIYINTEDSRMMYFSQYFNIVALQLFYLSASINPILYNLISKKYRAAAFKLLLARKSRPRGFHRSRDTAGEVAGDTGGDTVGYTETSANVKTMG

[6] = molecular target: T3, 5-hydroxytryptamine receptor 2C (Homo sapiens, UniProt P28335)
T3 sequence (P28335 whole entry): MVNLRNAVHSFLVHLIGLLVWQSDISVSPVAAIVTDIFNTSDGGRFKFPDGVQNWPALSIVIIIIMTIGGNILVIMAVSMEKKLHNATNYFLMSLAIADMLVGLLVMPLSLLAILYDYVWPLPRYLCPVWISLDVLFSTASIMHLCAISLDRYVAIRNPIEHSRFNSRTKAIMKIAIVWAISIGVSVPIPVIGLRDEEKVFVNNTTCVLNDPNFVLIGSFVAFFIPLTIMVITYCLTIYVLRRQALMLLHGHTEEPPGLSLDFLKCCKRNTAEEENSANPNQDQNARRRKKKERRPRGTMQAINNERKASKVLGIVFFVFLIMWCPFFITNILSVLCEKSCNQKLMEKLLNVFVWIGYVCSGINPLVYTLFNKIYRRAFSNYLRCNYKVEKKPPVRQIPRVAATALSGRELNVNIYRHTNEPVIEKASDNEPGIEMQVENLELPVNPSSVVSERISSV

B2 bradykinin receptor = molecular target: T4, B2 bradykinin receptor (Homo sapiens, UniProt P30411)
T4 sequence (P30411 whole entry): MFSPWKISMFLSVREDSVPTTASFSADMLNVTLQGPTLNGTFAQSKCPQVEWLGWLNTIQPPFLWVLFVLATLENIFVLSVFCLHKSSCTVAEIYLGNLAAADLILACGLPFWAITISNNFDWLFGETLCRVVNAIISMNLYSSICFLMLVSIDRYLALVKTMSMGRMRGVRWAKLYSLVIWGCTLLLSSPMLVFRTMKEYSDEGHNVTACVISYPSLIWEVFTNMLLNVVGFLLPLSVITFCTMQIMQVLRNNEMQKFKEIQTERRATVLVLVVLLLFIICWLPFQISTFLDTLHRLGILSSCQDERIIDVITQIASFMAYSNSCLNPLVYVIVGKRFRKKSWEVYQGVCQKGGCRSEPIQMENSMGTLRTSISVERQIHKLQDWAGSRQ

Estrogen receptor = molecular target: T5, Estrogen receptor (Homo sapiens, UniProt P03372)
T5 sequence (P03372 whole entry): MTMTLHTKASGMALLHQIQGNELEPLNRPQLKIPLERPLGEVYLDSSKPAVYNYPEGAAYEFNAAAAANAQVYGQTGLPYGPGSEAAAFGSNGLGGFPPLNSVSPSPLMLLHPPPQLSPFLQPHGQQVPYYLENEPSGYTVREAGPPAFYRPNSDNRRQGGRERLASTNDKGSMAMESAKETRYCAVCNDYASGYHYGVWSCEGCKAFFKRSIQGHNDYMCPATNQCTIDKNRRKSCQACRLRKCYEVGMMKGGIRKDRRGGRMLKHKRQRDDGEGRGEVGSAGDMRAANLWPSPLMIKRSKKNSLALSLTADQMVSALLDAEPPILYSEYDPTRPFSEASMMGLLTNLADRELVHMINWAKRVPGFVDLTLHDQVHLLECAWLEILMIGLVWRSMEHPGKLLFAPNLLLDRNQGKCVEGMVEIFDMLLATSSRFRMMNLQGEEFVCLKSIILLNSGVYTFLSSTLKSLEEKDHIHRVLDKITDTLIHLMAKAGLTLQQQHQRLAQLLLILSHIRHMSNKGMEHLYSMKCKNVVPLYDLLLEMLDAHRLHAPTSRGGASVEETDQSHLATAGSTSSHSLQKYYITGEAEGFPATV

[7] = molecular target: Sodium-dependent dopamine transporter (Homo sapiens, UniProt Q01959)
Sequence of Sodium-dependent dopamine transporter (Q01959 whole entry): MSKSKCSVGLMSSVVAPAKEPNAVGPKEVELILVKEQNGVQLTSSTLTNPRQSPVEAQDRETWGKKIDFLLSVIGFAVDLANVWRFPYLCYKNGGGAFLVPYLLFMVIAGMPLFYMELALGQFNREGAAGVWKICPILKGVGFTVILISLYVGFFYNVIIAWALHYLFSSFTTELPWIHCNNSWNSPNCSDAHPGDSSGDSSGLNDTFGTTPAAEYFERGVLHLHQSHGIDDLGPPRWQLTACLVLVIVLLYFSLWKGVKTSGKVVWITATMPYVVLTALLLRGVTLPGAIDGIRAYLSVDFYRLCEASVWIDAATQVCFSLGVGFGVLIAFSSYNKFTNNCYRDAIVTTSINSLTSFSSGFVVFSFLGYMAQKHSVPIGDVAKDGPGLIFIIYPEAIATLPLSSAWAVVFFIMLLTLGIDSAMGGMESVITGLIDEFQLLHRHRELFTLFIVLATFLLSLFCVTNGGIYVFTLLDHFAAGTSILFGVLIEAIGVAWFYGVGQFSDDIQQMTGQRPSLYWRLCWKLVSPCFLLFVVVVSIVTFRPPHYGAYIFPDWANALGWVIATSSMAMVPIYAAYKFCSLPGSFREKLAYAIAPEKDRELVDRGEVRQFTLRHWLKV

Adenosine receptor A2a = Adenosine receptor A2a (Homo sapiens, UniProt P29274)
Sequence of Adenosine receptor A2a (P29274 whole entry): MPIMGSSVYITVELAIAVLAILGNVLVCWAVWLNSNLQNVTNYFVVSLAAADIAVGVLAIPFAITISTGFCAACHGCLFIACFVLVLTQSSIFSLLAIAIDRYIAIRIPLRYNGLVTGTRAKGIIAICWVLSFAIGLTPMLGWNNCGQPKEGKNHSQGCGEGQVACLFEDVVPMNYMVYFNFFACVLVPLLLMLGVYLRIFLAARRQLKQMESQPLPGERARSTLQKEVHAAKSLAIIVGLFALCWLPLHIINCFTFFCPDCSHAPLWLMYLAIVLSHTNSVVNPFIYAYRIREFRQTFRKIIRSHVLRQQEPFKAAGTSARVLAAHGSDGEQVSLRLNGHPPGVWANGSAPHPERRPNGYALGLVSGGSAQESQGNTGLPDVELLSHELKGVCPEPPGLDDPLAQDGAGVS
Also: assay procedure not described here.

Sequence of Histamine H2 receptor (P25021 whole entry): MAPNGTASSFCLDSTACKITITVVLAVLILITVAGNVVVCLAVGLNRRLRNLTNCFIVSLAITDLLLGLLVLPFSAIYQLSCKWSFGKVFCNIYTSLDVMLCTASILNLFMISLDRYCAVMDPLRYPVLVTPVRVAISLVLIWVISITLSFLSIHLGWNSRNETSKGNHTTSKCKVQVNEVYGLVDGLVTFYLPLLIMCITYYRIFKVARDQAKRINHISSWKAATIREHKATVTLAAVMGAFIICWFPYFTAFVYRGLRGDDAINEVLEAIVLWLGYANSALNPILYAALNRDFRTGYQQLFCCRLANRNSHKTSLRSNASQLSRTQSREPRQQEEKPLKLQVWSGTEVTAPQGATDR
Sequence of Beta-2 adrenergic receptor (P07550 whole entry): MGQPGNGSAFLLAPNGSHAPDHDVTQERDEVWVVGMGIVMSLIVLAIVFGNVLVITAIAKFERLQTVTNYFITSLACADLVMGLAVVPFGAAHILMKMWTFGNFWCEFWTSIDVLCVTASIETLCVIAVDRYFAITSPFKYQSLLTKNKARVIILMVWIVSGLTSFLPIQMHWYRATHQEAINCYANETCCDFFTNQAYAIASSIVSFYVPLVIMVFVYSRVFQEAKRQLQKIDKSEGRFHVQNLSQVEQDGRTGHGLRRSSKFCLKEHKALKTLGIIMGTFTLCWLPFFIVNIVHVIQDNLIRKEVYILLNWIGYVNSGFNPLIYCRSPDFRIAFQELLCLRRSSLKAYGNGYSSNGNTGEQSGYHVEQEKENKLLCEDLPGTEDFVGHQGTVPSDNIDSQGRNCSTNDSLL

Row | Compound | AC50 (Histamine H2 receptor) [µM] | AC50 [1] [µM] | AC50 [2] [µM] | AC50 [3] [µM] | AC50 [4] [µM] | AC50 [5] [µM] | AC50 (Motilin receptor) [µM] | AC50 [6] [µM] | AC50 (B2 bradykinin receptor) [µM] | AC50 (Estrogen receptor) [µM] | AC50 [7] [µM] | AC50 (Adenosine receptor A2a) [µM]
1 | CCC(C(=O)O)c1ccc(CC(C)C)cc1 (stereo not drawn) [BUTIBUFEN] | > 30 | > 30 | > 30 | > 30 | > 30 | > 30 | > 30 | > 30 | > 30 | > 30 | > 30 | > 30
2 | CN(C)C(=O)OC1N=C(c2ccccc2)c2cc(Cl)ccc2N(C)C1=O (stereo not drawn) [CAMAZEPAM] | > 10 | > 10 | > 10 | > 30 | > 10 | > 10 | > 10 | > 30 | > 30 | > 30 | > 10 | > 30
3 | CC(C)C(=O)OCC(=O)[C@@]12O[C@H](C3CCCCC3)O[C@@H]1C[C@H]1[C@@H]3CCC4=CC(=O)C=C[C@]4(C)[C@H]3[C@@H](O)C[C@@]12C [CICLESONIDE] | > 10 | > 10 | > 10 | > 30 | > 10 | > 10 | > 10 | > 30 | > 10 | > 30 | > 10 | > 30
4 | CC(C)(Oc1ccc(C2CC2(Cl)Cl)cc1)C(=O)O (stereo not drawn) [CIPROFIBRATE] | > 30 | > 30 | > 30 | > 30 | > 30 | > 30 | > 30 | > 30 | > 30 | > 30 | > 30 | > 30
5 | CN1C(=O)CC(=O)N(c2ccccc2)c2cc(Cl)ccc21 [CLOBAZAM] | > 10 | > 10 | > 10 | > 30 | > 10 | > 10 | > 10 | > 30 | > 10 | > 10 | > 10 | > 10
6 | O=C(O)Cc1cn(-c2ccccc2)nc1-c1ccc(Cl)cc1 [LONAZOLAC] | > 30 | > 30 |  | > 30 | > 30 | > 30 | > 30 | > 30 | > 30 | > 30 | > 30 | > 30
7 | C#CCN[C@@H]1CCc2ccccc21 [RASAGILINE] | > 30 | > 30 |  | > 30 | > 30 | > 30 | > 30 | > 30 | > 30 | > 30 | > 30 | > 30
8 | C#CCN(C)[C@H](C)Cc1ccccc1 [SELEGILINE] | > 10 | > 10 |  | > 30 | > 10 | > 10 | > 10 | > 30 | > 10 | > 10 | > 10 | > 10
